Test results as given in US20230382869A1, “Phenyl-3,4-dihydroisoquinolin-2(1h)-yl-ethan-1-one derivatives as dopamine d1receptor positive allosteric modulators” (Eli Lilly and Company, priority 2020, published 2023).
Marks after values point to notes of the source that are not given here.

Tests used:
[1] = Fraction of drug unbound in human liver microsomes (fumic); format: in vitro ADME
Excerpt: fumic is the fraction of drug unbound in human liver microsomes

[2] = Renal and biliary excretion in bile-duct cannulated dogs; format: in vivo, dog
Description: The renal and biliary excretion of test compounds is tested in bile-duct cannulated dogs essentially according to Burkey J L, et al. (2002) Disposition of LY333531, a selective protein kinase C beta inhibitor, in the Fischer 344 rat and beagle dog. Xenobiotica 32:1045-1052. The compound of Example 7 is tested essentially as described and its renal and biliary excretion is found to be negligible. The fraction of compound cleared through CYP3A4 metabolism is calculated using the equation below: […]

[3] = Passive permeability in MDCKII cell line (Papp); format: in vitro ADME; details: dog, MDCK
Excerpt: Papp is the passive permeability measured in MDCKII cell line in house

[4] = system: Cytochrome P450 (CYP); assay: Fraction of CYP-mediated oxidative metabolism (fmCYP) in human hepatocytes with/without ABT; format: in vitro ADME
Description: The relative contribution of P450 s in the overall metabolism of a compound was determined from the clearance of the drug in an assay using human hepatocytes in the presence and absence of the pan P450 inhibitor 1-aminobenzotriazole (ABT). The intrinsic clearance was determined in cryopreserved human hepatocytes essentially as described in McGinnity D F, et al. (2004) Evaluation of fresh and cryopreserved hepatocytes as in vitro drug metabolism tools for the prediction of metabolic clearance. Drug Metab Dispos 32:1247-1253. Generally, the assay incubations contain 0.3 μM test compound and 10^6 cells/mL hepatocytes, with or without 0.5 hr. pre-incubation with ABT (1 mM). Parent compound loss is measured by LC/MS after 15, 30, 60 and 90 min. incubation. The intrinsic clearance (μL/min/10^6 cells) is calculated using the following equation for both ±ABT. The fraction of metabolism by CYP is the percentage of inhibition by ABT.
CLint=−kdep×incubation volume/10^6 cells,
in which the kdep, the substrate depletion constant (min^−1), is the slope determined using linear regression from the log transformed % remaining on the y-axis vs time on the x-axis (min^−1).

[5] = Fraction escaping first-pass gut metabolism (FG); set-up: species or system human; details: calculated
Excerpt: The estimation of fraction metabolized in the gut may be determined using the following equation found in Yang J, et al. (2007) Prediction of intestinal first-pass drug metabolism. Curr Drug Metab 8:676-684:
FG=Qgut/(Qgut+fugut×Clint CYP3A,gut)
Qgut=Qvilli×Clperm/(Qvilli+Clperm)
Clperm═Papp×Intestinal surface area
Clint,CYP3A,gut=CLint,CYP3A,liver/fumic×microsomal protein in gut (mg)×0.4 (in house calculation) Where Qgut is a hybrid flow term dependent upon the villous blood flow and permeability of the compound fugut is the fraction of drug unbound in the enterocyte
Qvilli is villous blood flow
Clperm is the clearance term defining permeability through the enterocyte
Papp is the passive permeability measured in MDCKII cell line in house fumic is the fraction of drug unbound in human liver microsomes
Human intestine parameters are from Yang et al., 2007, and Gertz M, et al. (2010) Prediction of human intestinal first-pass metabolism of 25 CYP3A substrates from in vitro clearance and permeability data. Drug Metab Dispos 38:1147-1158.

[6] = biological target: CYP3A4 (Homo sapiens (Human), UniProt P08684); assay: Recombinant CYP phenotyping assay (fmCYP3A4_RCP); format: in vitro ADME; details: not examined in RCP assay; worst case of 100% metabolized by CYP3A4 assumed
Description: The relative fraction of a compound's metabolism contributed by a given CYP, as for example CYP3A4, of the total P450 metabolism of the compound may be determined as follows:
A panel of 9 human recombinant CYPs (rCYPs) provided as Supersomes (BD Gentest, Woburn, MA), including rCYPs 1A2, 2B6, 2C8, 2C9, 2C19, 2D6, 2J2, 3A4, and 3A5, are evaluated for compound metabolism (see generally Cannady E A, et al. (2015) Evacetrapib: in vitro and clinical disposition, metabolism, excretion, and assessment of drug interaction potential with strong CYP3A and CYP2C8 inhibitors. Pharmacol Res Perspect 3:e00179). […]
in which kdep is the substrate depletion rate constant (min^−1), pmol rCYP is the lot-specific amount of rCYP in the incubation, and relative activity factor (RAF) is a relative activity factor (pmol/mg) appropriate for the rCYPs/HLMs pair. The rate constant is determined in-house by experiment, the slope determined using linear regression from the log transformed % remaining on the y-axis vs time on the x-axis (min^−1). pmol rCYP and RAF are vender supplied constenats for the supersome.
The fraction of CYP3A4-mediated metabolism (fmCYP3A4_RCP) is determined by dividing the HLM-scaled CLint of CYP3A4 by the sum of the HLM-scaled CL1nt for each P450 subtype assayed (Cannady et al., 2015).

[7] = In vivo tolerability in normal rats; details: broad dose range
[8] = system: human D1 receptor knock-in mice; assay: Basal (Habituated) Locomotor Activity; format: in vivo, mouse; details: for Basal Locomotor Activity (Total Ambulations for 60 min) Means: N = 8/group
Description: Locomotor activity is measured using an automated system to track movement in mice. Monitoring of mouse locomotor activity behaviors take place in transparent plastic shoebox cages having dimensions of 45×25×20 cm, with a 1 cm depth of wood chips for absorbent bedding, and covered with a ventilated filtered plastic cage top. Cages were placed in a rectangular frame containing a grid of 12 photocell beams in an 8×4 configuration (Kinder Scientific, Poway, CA) that is positioned 2.5 centimeters from the floor of the cage for the detection of body movements (ambulations) and recorded by computer.
Male human D1 receptor knock-in mice are placed in chambers and allowed to habituate to the chambers for 60 min. During the habituation period, the mice show decreasing locomotion over time, as expected. Following administration of a compound of the invention, animal movement is found to increase in a dose-dependent fashion.
The mice are randomly assigned to treatment groups. In the dose response study, each mouse is placed individually into one of the locomotor activity boxes for a 60 min. habituation period. The mice are then dosed orally using test compound in a 20% hydroxypropyl-betacyclodextrin vehicle and using a 10 mL/kg dose volume. After dosing, the mice are placed back into the LMA boxes and the total number of ambulations is recorded per 10 min interval for each mouse over a 60 min measurement period. Statistical analysis is carried out using one-way ANOVA followed by post-hoc analysis using Dunnett's Comparison test.

SMILES: C[C@H]1c2ccc(F)c(CCC(C)(C)O)c2C[C@H](CO)N1C(=O)Cc1c(F)cccc1Cl [Example 7, 2-(2-chloro-6-fluoro-phenyl)-1-[(1S,3R)-6-fluoro-3-(hydroxymethyl)-5-(3-hydroxy-3-methyl-butyl)-1-methyl-3,4-dihydro-1H-isoquinolin-2-yl]ethanone]
- fumic [1]: 0.392
- renal and biliary excretion [2]: negligible
- Papp [3]: 37.9 ×10⁻⁶ cm/s
- route of metabolism in hepatocytes [4]: primarily metabolized through non-oxidative processes
- fmCYP ([4]; CLint ±ABT (1 mM), 0.3 μM compound): 0.322
- fractions metabolized by CYPs ([4]; ±ABT): 32.3%
- FG [5]: 0.78
- fm3A4_RCP [6]: 1
- tolerability / toxicity in vivo [7]: generally well tolerated
- Basal Locomotor Activity (Total Ambulations for 60 min) Means ([8]; 3.0 mg/kg PO): 538
- Basal Locomotor Activity (Total Ambulations for 60 min) Means ([8]; 6.0 mg/kg PO): 1111
- Basal Locomotor Activity (Total Ambulations for 60 min) Means ([8]; 10 mg/kg PO): 1471***
- Basal Locomotor Activity (Total Ambulations for 60 min) Means ([8]; 30 mg/kg PO): 3937****
- Basal Locomotor Activity (Total Ambulations for 60 min) Means ([8]; 60 mg/kg PO): 4613****
- in vivo efficacy in locomotor activation ([8]; 10, 30, and 60 mg/kg PO, habituated mice): significant in vivo efficacy
- basal movement ([8]; oral dose response, 3-60 mg/kg): increase basal movement in a dose dependent manner
